Numbers after ± are expanded uncertainties.
Assay: molar heat capacity at constant pressure; mn = molality of the nth substance listed, in mol/kg
Settings: 350 kPa, Liquid

O=[N+]([O-])[O-].O=[N+]([O-])[O-].[Sr+2] [strontium nitrate] + O
molar heat capacity at constant pressure [J/K/mol]
Settings | m1 = 0.0499 | m1 = 0.1006 | m1 = 0.2005 | m1 = 0.4995 | m1 = 0.7992 | m1 = 0.9995 | m1 = 1.502 | m1 = 2.003 | m1 = 3.001
278.15 K | 75.4 ± 0.3 | 75.15 ± 0.3 | 74.75 ± 0.3 | 74.1 ± 0.3 | 73.96 ± 0.29 | 74.06 ± 0.3 | 74.66 ± 0.3 | 75.65 ± 0.3 | 77.88 ± 0.31
283.15 K | 75.27 ± 0.3 | 75.05 ± 0.3 | 74.7 ± 0.3 | 74.14 ± 0.3 | 74.04 ± 0.3 | 74.14 ± 0.3 | 74.76 ± 0.3 | 75.76 ± 0.3 | 77.98 ± 0.31
288.15 K | 75.18 ± 0.3 | 74.99 ± 0.3 | 74.68 ± 0.3 | 74.19 ± 0.3 | 74.11 ± 0.3 | 74.22 ± 0.3 | 74.84 ± 0.3 | 75.84 ± 0.3 | 78.06 ± 0.31
293.15 K | 75.13 ± 0.3 | 74.95 ± 0.3 | 74.67 ± 0.3 | 74.24 ± 0.3 | 74.18 ± 0.3 | 74.3 ± 0.3 | 74.92 ± 0.3 | 75.92 ± 0.3 | 78.12 ± 0.31
298.15 K | 75.1 ± 0.3 | 74.94 ± 0.3 | 74.68 ± 0.3 | 74.29 ± 0.3 | 74.25 ± 0.3 | 74.37 ± 0.3 | 74.99 ± 0.3 | 75.99 ± 0.3 | 78.17 ± 0.31
303.15 K | 75.08 ± 0.3 | 74.93 ± 0.3 | 74.7 ± 0.3 | 74.34 ± 0.3 | 74.31 ± 0.3 | 74.43 ± 0.3 | 75.05 ± 0.3 | 76.04 ± 0.3 | 78.21 ± 0.31
308.15 K | 75.08 ± 0.3 | 74.94 ± 0.3 | 74.72 ± 0.3 | 74.39 ± 0.3 | 74.37 ± 0.3 | 74.49 ± 0.3 | 75.1 ± 0.3 | 76.09 ± 0.3 | 78.24 ± 0.31
313.15 K | 75.09 ± 0.3 | 74.95 ± 0.3 | 74.75 ± 0.3 | 74.44 ± 0.3 | 74.42 ± 0.3 | 74.55 ± 0.3 | 75.15 ± 0.3 | 76.13 ± 0.3 | 78.27 ± 0.31
318.15 K | 75.11 ± 0.3 | 74.98 ± 0.3 | 74.79 ± 0.3 | 74.49 ± 0.3 | 74.48 ± 0.3 | 74.6 ± 0.3 | 75.2 ± 0.3 | 76.17 ± 0.3 | 78.29 ± 0.31
323.15 K | 75.14 ± 0.3 | 75.01 ± 0.3 | 74.83 ± 0.3 | 74.55 ± 0.3 | 74.54 ± 0.3 | 74.66 ± 0.3 | 75.25 ± 0.3 | 76.2 ± 0.3 | 78.31 ± 0.31
328.15 K | 75.17 ± 0.3 | 75.05 ± 0.3 | 74.87 ± 0.3 | 74.6 ± 0.3 | 74.59 ± 0.3 | 74.71 ± 0.3 | 75.29 ± 0.3 | 76.24 ± 0.3 | 78.32 ± 0.31
333.15 K | 75.21 ± 0.3 | 75.1 ± 0.3 | 74.92 ± 0.3 | 74.66 ± 0.3 | 74.65 ± 0.3 | 74.76 ± 0.3 | 75.33 ± 0.3 | 76.27 ± 0.3 | 78.34 ± 0.31
338.15 K | 75.26 ± 0.3 | 75.15 ± 0.3 | 74.98 ± 0.3 | 74.72 ± 0.3 | 74.71 ± 0.3 | 74.82 ± 0.3 | 75.37 ± 0.3 | 76.3 ± 0.3 | 78.36 ± 0.31
343.15 K | 75.32 ± 0.3 | 75.21 ± 0.3 | 75.04 ± 0.3 | 74.78 ± 0.3 | 74.77 ± 0.3 | 74.87 ± 0.3 | 75.41 ± 0.3 | 76.33 ± 0.3 | 78.38 ± 0.31
348.15 K | 75.39 ± 0.3 | 75.27 ± 0.3 | 75.11 ± 0.3 | 74.85 ± 0.3 | 74.83 ± 0.3 | 74.93 ± 0.3 | 75.46 ± 0.3 | 76.36 ± 0.3 | 78.41 ± 0.31
353.15 K | 75.46 ± 0.3 | 75.34 ± 0.3 | 75.18 ± 0.3 | 74.91 ± 0.3 | 74.89 ± 0.3 | 74.98 ± 0.3 | 75.5 ± 0.3 | 76.4 ± 0.3 | 78.43 ± 0.31
358.15 K | 75.54 ± 0.3 | 75.42 ± 0.3 | 75.25 ± 0.3 | 74.98 ± 0.3 | 74.95 ± 0.3 | 75.04 ± 0.3 | 75.55 ± 0.3 | 76.44 ± 0.3 | 78.47 ± 0.31
363.15 K | 75.62 ± 0.3 | 75.5 ± 0.3 | 75.33 ± 0.3 | 75.06 ± 0.3 | 75.02 ± 0.3 | 75.11 ± 0.3 | 75.6 ± 0.3 | 76.48 ± 0.31 | 78.52 ± 0.31
368.15 K | 75.71 ± 0.3 | 75.59 ± 0.3 | 75.42 ± 0.3 | 75.14 ± 0.3 | 75.09 ± 0.3 | 75.17 ± 0.3 | 75.65 ± 0.3 | 76.53 ± 0.31 | 78.57 ± 0.31
373.15 K | 75.81 ± 0.3 | 75.69 ± 0.3 | 75.51 ± 0.3 | 75.22 ± 0.3 | 75.17 ± 0.3 | 75.24 ± 0.3 | 75.71 ± 0.3 | 76.59 ± 0.31 | 78.64 ± 0.32
378.15 K | 75.92 ± 0.3 | 75.8 ± 0.3 | 75.61 ± 0.3 | 75.31 ± 0.3 | 75.25 ± 0.3 | 75.32 ± 0.3 | 75.78 ± 0.3 | 76.65 ± 0.31 | 78.72 ± 0.32
383.15 K | 76.04 ± 0.3 | 75.91 ± 0.3 | 75.72 ± 0.3 | 75.4 ± 0.3 | 75.33 ± 0.3 | 75.4 ± 0.3 | 75.85 ± 0.3 | 76.72 ± 0.31 | 78.82 ± 0.32
388.15 K | 76.16 ± 0.3 | 76.03 ± 0.3 | 75.83 ± 0.3 | 75.5 ± 0.3 | 75.42 ± 0.3 | 75.49 ± 0.3 | 75.93 ± 0.3 | 76.8 ± 0.31 | 78.94 ± 0.32
393.15 K | 76.3 ± 0.31 | 76.16 ± 0.3 | 75.95 ± 0.3 | 75.61 ± 0.3 | 75.52 ± 0.3 | 75.58 ± 0.3 | 76.02 ± 0.31 | 76.89 ± 0.31 | 79.07 ± 0.32
